According to publication PMC12732581, “Molecular and System-Level Characterization of MMP12 Suppression in Lung Cancer: A Combined Bioinformatics and Molecular Approach” (International Journal of Molecular Sciences, 2025):

What was measured:
H1299 cells [1] = assay: Wound healing migration assay; assay type: cell-based, human; details: for Wound closure %: untreated 99; for Wound migration rate (px/h): untreated 16,702
Method: The wound healing migration assay was conducted using H1299 cells, following an established protocol. […] Images were captured at 0 and 48 h, and wound closure was quantified using ImageJ. Digital images were analyzed for wound area using the ImageJ software version 1.53e.

H1299 cells [2] = assay: Soft agar colony formation assay (anchorage-independent growth); assay type: cell-based, human; details: for Colony count / Colony average size (px): H1299 soft agar; for Colony count: untreated 920; for Colony average size (px): untreated 746758
Method: Figures S12–S16 show a selection of images captured on day 15 at different magnifications: 4× and 20×.
The anchorage-independent colony formation assay was conducted using a previously described method with minor modifications. […] After 14 days of incubation, the colonies were imaged using the EVOS XL Core microscopeThermo Fisher Scientific, Waltham, MA, USA. and quantified.

[3] = system: SPARCL1 mRNA in H1299 cells; assay: qPCR gene expression, SPARCL1; assay type: cell-based, human; details: H1299, 0.1 IC50, 72 h
Method: Quantitative real-time PCR (qPCR) was used to assess the impact of MMP12 inhibition in H1299 lung cancer cells.
Quantitative real-time PCR (qPCR) was conducted as previously described. Lung cancer cell lines (A549, H1299, H661) were seeded at approximately 4 × 10^5 cells per T-25 flask and incubated for 24 h. […] Total RNA was extracted, reverse-transcribed into cDNA, and qPCR was performed using SYBR Green on an Applied Biosystems platform, Foster City, CA, USA. Gene expression was normalized to GAPDH, and the fold-change was calculated using the 2^−ΔΔCt method. The basal expression of MMP12 in untreated A549, H1299, and H661 cells was assessed using the 2^−ΔCt method. Primer sequences and annealing temperatures (Ta) are listed in Table S2 (Supplementary Materials).

H1299 cells [4] = details: human, 72 h
Method: Apoptosis was assessed using Annexin-V/PI staining, following the method described earlier with minor modifications [84]. […] After the treatment, the cells were collected and stained with Annexin-V-FITC and propidium iodide. The stained cells were then analyzed using a BD FACSCanto II flow cytometer (Becton, Dickinson and Company (BD), Franklin Lakes, NJ, USA) and FACSDiva software (Becton, Dickinson and Company (BD), Franklin Lakes, NJ, USA).

[5] = highest listed concentration (IC50)
[6] = lowest listed concentration (¼ IC50)
[7] = middle listed concentration (½ IC50)

O=C(/C=C/c1ccc(Cl)cc1)Nc1ccc(C(=O)c2ccccc2)cc1 [Compound C1]
Wound closure % (H1299 cells [1]; H1299, 48 h, at IC50 concentration): 10% | Wound closure % (H1299 cells [1]; H1299, 48 h, at ¼ IC50): 72% | inhibition of wound closure (H1299 cells [1]; H1299, 48 h, at ½ IC50 (C1 45.9, C7 24.1, C9 21.7, C10 32.7, C15 72.6 µM)): ~50% | Wound closure % (H1299 cells [1]; H1299, 48 h, at ½ IC50): 50% | Wound migration rate (px/h) (H1299 cells [1]; H1299, at IC50 concentration): 1,640.73 px/h | Wound migration rate (px/h) (H1299 cells [1]; H1299, at ¼ IC50): 11,751 px/h | Wound migration rate (px/h) (H1299 cells [1]; H1299, at ½ IC50): 9,225 px/h | formation of cell colonies (number and size), in words (H1299 cells [2]; H1299, IC50, ½ IC50 or ¼ IC50, 72 h, vs untreated control): inhibited the formation of cell colonies | Colony count (H1299 cells [2]; [5]): 292 | Colony average size (px) (H1299 cells [2]; [5]): 51655 px | Colony count (H1299 cells [2]; [6]): 520 | Colony average size (px) (H1299 cells [2]; [6]): 262500 px | Colony count (H1299 cells [2]; [7]): 408 | Colony average size (px) (H1299 cells [2]; [7]): 130041 px | SPARCL1 Fold Change (2^−ΔΔCt) ([3]; relative to untreated, GAPDH normalized): 0.49 | SPARCL1 % Change ([3]; vs untreated control): −51% | Viable (%) (Annexin−/PI−, Q1-LL) (H1299 cells [4]): 78.6%
